Measurements as given in patent US20100317528A1, “HERBICIDE CONTAINING BENZOYLPYRAZOLE COMPOUND” (ISHIHARA SANGYO KAISHA, LTD., priority 2006, published 2010).

tested on: corn (Zea mays L.); test: Test Example 1: foliar treatment, upland pot test, corn; assay type: in vivo; conditions: Zea mays, 31 g/ha active ingredient, observed 17th to 25th day after application, read-out: Growth inhibition rate (%) Corn
Excerpt: (§1) Upland field soil was put into a 1/170,000 hectare pot, and seeds of various plants were sown. When the respective plants reached predetermined leaf stage ((1) barnyardgrass (Echinochloa crus-galli L.): 1.0 to 3.0 leaf stage, (2) crabgrass (Digitaria sanguinalis L.): 1.0 to 3.0 leaf stage, (3) green foxtail (Setaria viridis L.): 1.0 to 3.0 leaf stage, (4) redroot pigweed (Amaranthus retroflexus L.): cotyledon stage to 2.0 leaf stage, (5) prickly sida (Sida spinosa L.): cotyledon stage to 1.0 leaf stage, (6) velvetleaf (Abutilon theophrasti MEDIC.): 0.1 to 1.5 leaf stage, (7) rice (Oryza sativa L.): 1.0 to 3.0 leaf stage, (8) wheat (Triticum spp.): 1.7 to 3.4 leaf stage, (9) corn (Zea mays L.): 2.0 to 3.5 leaf stage, (10) soybean (Glycine max Merr.): primary leaf stage to 0.4 leaf stage), wettable powders or emulsifiable concentrates of the compounds of the above formula (I) prepared in accordance with a conventional preparation method, were weighed so that the active ingredients became the prescribed amounts, and diluted with water in an amount corresponding to 500 liter per 1 hectare (containing 0.1 vol % of “KUSARINOH”, manufactured by NIHON NOHYAKU CO., LTD. as an agricultural spreader). The spray solutions thus prepared were applied for foliar treatment by a small sprayer.
(§2) On the 17th to 25th day after application, the state of growth of the respective plants was visually observed, and the herbicidal effect was evaluated by a growth inhibition rate (%) of 0 (equivalent to the non-treated area) to 100% (complete kill).

| SMILES | inhibition at 31 g/ha |
| --- | --- |
| Cc1c(C(=O)c2cnn(C)c2O)ccc(S(C)(=O)=O)c1OC(F)F [compound 146] | 0% |

tested on: rice (Oryza sativa L.); test: Test Example 1: foliar treatment, upland pot test, rice; assay type: in vivo; conditions: Oryza sativa, 31 g/ha active ingredient, observed 17th to 25th day after application, read-out: Growth inhibition rate (%) Rice
Excerpt: as §1, §2

| SMILES | inhibition at 31 g/ha |
| --- | --- |
| Cc1c(C(=O)c2cnn(C)c2O)ccc(S(C)(=O)=O)c1OC(F)F [compound 146] | 20% |

tested on: soybean (Glycine max Merr.); test: Test Example 1: foliar treatment, upland pot test, soybean; assay type: in vivo; conditions: Glycine max, 31 g/ha active ingredient, observed 17th to 25th day after application, read-out: Growth inhibition rate (%) Soybean
Excerpt: as §1, §2

| SMILES | inhibition at 31 g/ha |
| --- | --- |
| Cc1c(C(=O)c2cnn(C)c2O)ccc(S(C)(=O)=O)c1OC(F)F [compound 146] | 60% |

tested on: wheat (Triticum spp.); test: Test Example 1: foliar treatment, upland pot test, wheat; assay type: in vivo; conditions: Triticum, 31 g/ha active ingredient, observed 17th to 25th day after application, read-out: Growth inhibition rate (%) Wheat
Excerpt: as §1, §2

| SMILES | inhibition at 31 g/ha |
| --- | --- |
| Cc1c(C(=O)c2cnn(C)c2O)ccc(S(C)(=O)=O)c1OC(F)F [compound 146] | 0% |

tested on: soybean (Glycine max Merr.); test: Test Example 2: soil application on the day after sowing, soybean; assay type: in vivo; conditions: Glycine max, 250 g/ha active ingredient, observed 19th to 28th day after application, read-out: Growth inhibition rate (%) Soybean
Excerpt: (§3) Upland field soil was put into a 1/170,000 hectare pot, and seeds of various plants barnyardgrass (Echinochloa crus-galli L.), crabgrass (Digitaria sanquinalis L.), green foxtail (Setaria viridis L.), redroot pigweed (Amaranthus retroflexus L.), prickly sida (Sida spinosa L.), velvetleaf (Abutilon theophrasti MEDIC.), rice (Oryza sativa L.), wheat (Triticum spp.), corn (Zea mays L.) and soybean (Glycine max Merr.)) were sown. On the day after sowing, wettable powders or emulsifiable concentrates of the compounds of the above formula (I) prepared in accordance with a conventional preparation method, were weighed so that the active ingredients became the prescribed amounts, and diluted with water in an amount corresponding to 500 liter per 1 hectare, followed by soil application with a small sprayer.
(§4) On the 19th to 28th day after the application, the state of growth of the respective plants was visually observed, and the herbicidal effect was evaluated by a growth inhibition rate (%) of from 0 (equivalent to the non-treated area) to 100% (complete kill).

| SMILES | inhibition at 250 g/ha |
| --- | --- |
| Cc1c(C(=O)c2cnn(C)c2O)ccc(S(C)(=O)=O)c1OC(F)F [compound 146] | 0% |

tested on: redroot pigweed (Amaranthus retroflexus L.); test: Test Example 1: foliar treatment, upland pot test, redroot pigweed; assay type: in vivo; conditions: Amaranthus retroflexus, 31 g/ha active ingredient, observed 17th to 25th day after application, read-out: Growth inhibition rate (%) Redroot pigweed
Excerpt: as §1, §2

| SMILES | inhibition at 31 g/ha |
| --- | --- |
| Cc1c(C(=O)c2cnn(C)c2O)ccc(S(C)(=O)=O)c1OC(F)F [compound 146] | 80% |

tested on: prickly sida (Sida spinosa L.); test: Test Example 1: foliar treatment, upland pot test, prickly sida; assay type: in vivo; conditions: Sida spinosa, 31 g/ha active ingredient, observed 17th to 25th day after application, read-out: Growth inhibition rate (%) Prickly sida
Excerpt: as §1, §2

| SMILES | inhibition at 31 g/ha |
| --- | --- |
| Cc1c(C(=O)c2cnn(C)c2O)ccc(S(C)(=O)=O)c1OC(F)F [compound 146] | 40% |

tested on: green foxtail (Setaria viridis L.); test: Test Example 1: foliar treatment, upland pot test, green foxtail; assay type: in vivo; conditions: Setaria viridis, 31 g/ha active ingredient, observed 17th to 25th day after application, read-out: Growth inhibition rate (%) Green foxtail
Excerpt: as §1, §2

| SMILES | inhibition at 31 g/ha |
| --- | --- |
| Cc1c(C(=O)c2cnn(C)c2O)ccc(S(C)(=O)=O)c1OC(F)F [compound 146] | 30% |

tested on: crabgrass (Digitaria sanguinalis L.); test: Test Example 1: foliar treatment, upland pot test, crabgrass; assay type: in vivo; conditions: Digitaria sanguinalis, 31 g/ha active ingredient, observed 17th to 25th day after application, read-out: Growth inhibition rate (%) Crabgrass
Excerpt: as §1, §2

| SMILES | inhibition at 31 g/ha |
| --- | --- |
| Cc1c(C(=O)c2cnn(C)c2O)ccc(S(C)(=O)=O)c1OC(F)F [compound 146] | 30% |

tested on: redroot pigweed (Amaranthus retroflexus L.); test: Test Example 2: soil application on the day after sowing, redroot pigweed; assay type: in vivo; conditions: Amaranthus retroflexus, 250 g/ha active ingredient, observed 19th to 28th day after application, read-out: Growth inhibition rate (%) Redroot pigweed
Excerpt: as §3, §4

| SMILES | inhibition at 250 g/ha |
| --- | --- |
| Cc1c(C(=O)c2cnn(C)c2O)ccc(S(C)(=O)=O)c1OC(F)F [compound 146] | 100% |

tested on: prickly sida (Sida spinosa L.); test: Test Example 2: soil application on the day after sowing, prickly sida; assay type: in vivo; conditions: Sida spinosa, 250 g/ha active ingredient, observed 19th to 28th day after application, read-out: Growth inhibition rate (%) Prickly sida
Excerpt: as §3, §4

| SMILES | inhibition at 250 g/ha |
| --- | --- |
| Cc1c(C(=O)c2cnn(C)c2O)ccc(S(C)(=O)=O)c1OC(F)F [compound 146] | 90% |

tested on: barnyardgrass (Echinochloa crus-galli L.); test: Test Example 1: foliar treatment, upland pot test, barnyardgrass; assay type: in vivo; conditions: Echinochloa crus-galli, 31 g/ha active ingredient, observed 17th to 25th day after application, read-out: Growth inhibition rate (%) Barnyardgrass
Excerpt: as §1, §2

| SMILES | inhibition at 31 g/ha |
| --- | --- |
| Cc1c(C(=O)c2cnn(C)c2O)ccc(S(C)(=O)=O)c1OC(F)F [compound 146] | 80% |

tested on: rice (Oryza sativa L.); test: Test Example 2: soil application on the day after sowing, rice; assay type: in vivo; conditions: Oryza sativa, 250 g/ha active ingredient, observed 19th to 28th day after application, read-out: Growth inhibition rate (%) Rice
Excerpt: as §3, §4

| SMILES | inhibition at 250 g/ha |
| --- | --- |
| Cc1c(C(=O)c2cnn(C)c2O)ccc(S(C)(=O)=O)c1OC(F)F [compound 146] | 70% |

tested on: velvetleaf (Abutilon theophrasti MEDIC.); test: Test Example 1: foliar treatment, upland pot test, velvetleaf; assay type: in vivo; conditions: Abutilon theophrasti, 31 g/ha active ingredient, observed 17th to 25th day after application, read-out: Growth inhibition rate (%) Velvetleaf
Excerpt: as §1, §2

| SMILES | inhibition at 31 g/ha |
| --- | --- |
| Cc1c(C(=O)c2cnn(C)c2O)ccc(S(C)(=O)=O)c1OC(F)F [compound 146] | 50% |

tested on: green foxtail (Setaria viridis L.); test: Test Example 2: soil application on the day after sowing, green foxtail; assay type: in vivo; conditions: Setaria viridis, 250 g/ha active ingredient, observed 19th to 28th day after application, read-out: Growth inhibition rate (%) Green foxtail
Excerpt: as §3, §4

| SMILES | inhibition at 250 g/ha |
| --- | --- |
| Cc1c(C(=O)c2cnn(C)c2O)ccc(S(C)(=O)=O)c1OC(F)F [compound 146] | 95% |

tested on: corn (Zea mays L.); test: Test Example 2: soil application on the day after sowing, corn; assay type: in vivo; conditions: Zea mays, 250 g/ha active ingredient, observed 19th to 28th day after application, read-out: Growth inhibition rate (%) Corn
Excerpt: as §3, §4

| SMILES | inhibition at 250 g/ha |
| --- | --- |
| Cc1c(C(=O)c2cnn(C)c2O)ccc(S(C)(=O)=O)c1OC(F)F [compound 146] | 0% |

tested on: crabgrass (Digitaria sanquinalis L.); test: Test Example 2: soil application on the day after sowing, crabgrass; assay type: in vivo; conditions: Digitaria, 250 g/ha active ingredient, observed 19th to 28th day after application, read-out: Growth inhibition rate (%) Crabgrass
Excerpt: as §3, §4

| SMILES | inhibition at 250 g/ha |
| --- | --- |
| Cc1c(C(=O)c2cnn(C)c2O)ccc(S(C)(=O)=O)c1OC(F)F [compound 146] | 100% |

tested on: barnyardgrass (Echinochloa crus-galli L.); test: Test Example 2: soil application on the day after sowing, barnyardgrass; assay type: in vivo; conditions: Echinochloa crus-galli, 250 g/ha active ingredient, observed 19th to 28th day after application, read-out: Growth inhibition rate (%) Barnyardgrass
Excerpt: as §3, §4

| SMILES | inhibition at 250 g/ha |
| --- | --- |
| Cc1c(C(=O)c2cnn(C)c2O)ccc(S(C)(=O)=O)c1OC(F)F [compound 146] | 90% |

tested on: wheat (Triticum spp.); test: Test Example 2: soil application on the day after sowing, wheat; assay type: in vivo; conditions: Triticum, 250 g/ha active ingredient, observed 19th to 28th day after application, read-out: Growth inhibition rate (%) Wheat
Excerpt: as §3, §4

| SMILES | inhibition at 250 g/ha |
| --- | --- |
| Cc1c(C(=O)c2cnn(C)c2O)ccc(S(C)(=O)=O)c1OC(F)F [compound 146] | 0% |

tested on: velvetleaf (Abutilon theophrasti MEDIC.); test: Test Example 2: soil application on the day after sowing, velvetleaf; assay type: in vivo; conditions: Abutilon theophrasti, 250 g/ha active ingredient, observed 19th to 28th day after application, read-out: Growth inhibition rate (%) Velvetleaf
Excerpt: as §3, §4

| SMILES | inhibition at 250 g/ha |
| --- | --- |
| Cc1c(C(=O)c2cnn(C)c2O)ccc(S(C)(=O)=O)c1OC(F)F [compound 146] | 40% |
